Data published in patent US20210154359A1, “FIBRILLAR-PROTEIN BASED COMPOSITIONS AND USES THEREOF” (Hi-Aspect Limited, priority 2017, published 2021).
≈ marks a conversion by molar mass, not a printed value. Where two headings read alike, the source gives them in different places.

Key:
[1] = Loading capacity of protein composition C with hydrophilic and hydrophobic agents; assay type: physicochemical; settings: in protein composition C, room temperature
3T3 = experiment: In Vitro 3T3 NRU Phototoxicity Test (OECD 432); assay type: cell-based; settings: for IC50: Mus musculus, NIH3T3, light or radiation study
[2] = agent in water, in words; cited from earlier work
[3] = loading trial to date, not maximum loading
[4] = read-out: Cell Viability IC50 Minus UVA
[5] = read-out: Cell Viability IC50 Plus UVA

## O=C1O[C@H]([C@@H](O)CO)C(O)=C1O [Ascorbic acid]
[1]; maximum loading
  Loading: 350 mg/g

## O=C(O)c1ccccc1 [Benzoic acid]
[1]; [3]
  Loading: 10 mg/g

## Cn1c(=O)c2c(ncn2C)n(C)c1=O [Caffeine]
[1]; maximum loading
  Loading: 350 mg/g

## CN(C)CCCN1c2ccccc2Sc2ccc(Cl)cc21 [Chlorpromazine]
3T3
  Comment (phototoxicity): Phototoxic
  Mean MPE: 0.510
  Mean PIF: 70
3T3; [4]
  IC50: 7 µg/mL (≈ 22 µM)
3T3; [5]
  IC50: 0.1 µg/mL

## N[C@@H](Cc1c[nH]cn1)C(=O)O [Histidine]
3T3
  Mean MPE: −0.016
  Mean PIF: 1.0
3T3; [4]
  IC50: > 1000 µg/mL
3T3; [5]
  IC50: > 1000 µg/mL

## CN(C)c1ccc2nc3ccc(=[N+](C)C)cc-3sc2c1 [Methylene blue]
[1]; [3]
  Loading: 10 mg/g

## C=C[C@H]1C[N@@]2CC[C@H]1C[C@H]2[C@H](O)c1ccnc2ccc(OC)cc12 [Quinine sulphate]
[1]; [3]
  Loading: 10 mg/g

## CC1=C(/C=C/C(C)=C/C=C/C(C)=C/C=O)C(C)(C)CCC1 [Retinal]
[2]
  Solubility (water): Nearly insoluble
[1]; [3]
  Loading: 1 mg/g

## CCCCCCCCCCCCCCCC(=O)OC/C=C(C)/C=C/C=C(C)/C=C/C1=C(C)CCCC1(C)C [Retinyl palmitate]
[2]
  Solubility (water): Insoluble
[1]; [3]
  Loading: 25 mg/g

## N[C@@H](Cc1c[nH]c2ccccc12)C(=O)O [Tryptophan]
[1]; maximum loading
  Loading: 350 mg/g
